Laboratory results: publication PMC6539144, “Discovery of Novel Potential Reversible Peptidyl Arginine Deiminase Inhibitor” (International Journal of Molecular Sciences, 2019)
Where two headings read alike, the source gives them in different places. One block for each molecule: values may come before it.

Columns and labels:
GST-PAD4 [1] = biological target: T1, GST-PAD4 (Homo sapiens, UniProt Q9UM07); assay: GST-PAD4 inhibitory activity in the presence of serum and synovial fluid; assay type: biochemical; conditions: for Inhibitory potential on GST-PAD4 in the presence of serum / Inhibitory activity on GST-PAD4 in the presence of RA synovial fluid: 50 µM compound (Cl-amidine 50 and 200 µM); for Inhibitory potential on GST-PAD4 in the presence of serum: serum diluted 1:3, compared to in vitro conditions; for Inhibitory activity on GST-PAD4 in the presence of RA synovial fluid: synovial fluid diluted 1:3, 1 mM Dansyl-Gly-Arg
T1 construct: made in house
Protocol: A total of 50 μM of compounds 1 to 6 were pre-incubated with 1 mU of GST-PAD4 for 30 min at 37 °C with serum from healthy blood donors, serum or synovial fluid from patients with RA, serially diluted from 1:1.5 to 1:30 in the assay buffer (100 mM Tris pH 7.5, 10 mM CaCl2). The reaction was then initiated by the addition of 1 mM Dansyl-Gly-Arg and stopped after 1h as described above. The assay included a negative and positive control: a DMSO (no compound) control and a known irreversible compound (Cl-amidine) at 50 and 200 μM. Samples were separated by HPLC.

GST-PAD4 [2] = biological target: T1, GST-PAD4; assay: Histone H3 citrullination assay (purified calf thymus histone H3, western blot); assay type: biochemical; conditions: 50 µM, purified calf thymus histone H3, 0.5 mM DTT
Protocol: A total of 50 μM of compounds 1 to 6 were pre-incubated with 1 mU of GST-PAD4 for 30 min at 37 °C in the assay buffer (100 mM Tris pH 7.5, 10 mM CaCl2, 0.5 mM DTT). After that, 5 μg of purified calf thymus histone H3 was added to the reaction mixture and incubated further for 60 min at 37 °C. Three controls were performed in the assay: a DMSO (no compound) control and a known irreversible compound (Cl-amidine) at 50 and 200 μM. The citrullination was assessed by western blot using antibodies specific to citrullinated histone H3.
The protein concentration in each sample was measured (A280nm) and normalized post-extraction. Next, histone proteins were separated in precast Novex^TM 16% Tris-Glycine 1 mm minigels (Invitrogen, Carlsbad, CA, USA). After electrophoresis, proteins were transferred into nitrocellulose membranes (0.2 μm) at 4 °C (transfer buffer: 10 mM CAPS, 20% methanol, pH 11). Membranes were blocked for 1 h at room temperature with 5% milk in TBST (1× Tris Buffered Saline, pH 8.0, with 0.1% Tween 20) and then incubated overnight at 4 °C with rabbit polyclonal anti-H3Cit antibody (Abcam, ab5103, Cambridge, UK) at a 1:1,000 dilution in the blocking solution. […] The signal was recorded with ChemiDoc image analyzer (Bio-Rad Laboratories, Hercules, CA, USA).

human neutrophils [3] = assay: NET assay: extracellular DNA release (PicoGreen) from PMA-stimulated neutrophils; assay type: cell-based; conditions: 30 µM
Protocol: Granulocyte-enriched fractions were harvested using a lymphocyte separation medium density gradient (PAN Biotech, Aidenbach, Germany). Neutrophils and erythrocytes were separated after 30 min of incubation with 1% polyvinyl alcohol (POCH, Gliwice, Poland). Neutrophils were collected from the upper layer and after centrifugation (280× g, 10 min), the residual erythrocytes were removed by lysis in water. Cells were then resuspended in serum-free DMEM without phenol red (Gibco, Waltham, MA, USA). To measure the extracellular DNA release, neutrophils were seeded at 2 × 10^6/well in 0.01 mg/mL poly-L-lysine (Sigma-Aldrich) coated 24-well plates and centrifuged (200× g, 5 min). Neutrophils were treated for 1h with DMSO alone, or with either 30 μM or 100 μM of compound 4 or Cl-amidine. Cells were then stimulated with 25 nM PMA (phorbol 12-myristate 13-acetate) or left unstimulated as controls for 3 h at 37 °C, 5% CO2. Following stimulation, the cell medium was collected and the extracellular DNA was quantified using the Quant-iT^TM PicoGreen® dsDNA Reagent (QPG; Invitrogen, Carlsbad, CA, USA). The 1:200 dilution of QPG in TE buffer (10 mM Tris, 1 mM EDTA, pH 7.5) and 90 μL of TE buffer was added to 10 μL of the supernatant containing the extracellular DNA and fluorescence was measured with an excitation wavelength 480 nm and emission wavelength 520 nm.

human neutrophils [4] = assay: NETs imaging assay (DNA and histone H2A immunostaining); assay type: cell-based; conditions: 100 µM, PMA stimulation
Protocol: For the NETs imaging assays, neutrophils were allowed to adhere to poly-L-lysine coated coverslips (5 × 10^5 cells/coverslip) for 30 min at 37 °C, 5% CO2. Neutrophils were then treated for 1 h with DMSO alone, or 100 μM of compound 4 or Cl-amidine. Neutrophils were then stimulated with 25 nM PMA or left unstimulated as controls for 3 h at 37 °C, 5% CO2. Neutrophils were fixed with 3.7% formaldehyde for 10 min, washed three times with PBS and blocked (5% FBS, 1% BSA, 0.05% Tween, 2 mM EDTA in PBS) for 1 h. Cells were washed and treated with 0.1% saponin (Sigma-Aldrich) in PBS for 30 min. Cells were stained first with rabbit polyclonal anti-histone H2A antibody (Abcam), and then with allophycocyanin (APC) F(ab’)2 goat anti-rabbit antibody (Jackson ImmunoResearch Lab Inc., Ely, UK) in the presence of 3% BSA in 0.1% saponin. Cells were counterstained with 1 µg/mL Hoechst 33258 dye (Invitrogen). Images were captured with a fluorescence microscope (Nikon Eclips Ti, Nikon, Konan, Tokyo).

PAD4 = conditions: cited from earlier work
colitis = test system: colitis; set-up: method as in PMID 21415415; conditions: cited from earlier work
[5] = test system: collagen-induced arthritis; conditions: cited from earlier work
GST-PAD4 [6] = biological target: T1, GST-PAD4; assay: GST-PAD4 inhibition assay (Dansyl-Gly-Arg citrullination, HPLC); assay type: biochemical; conditions: for Inhibition of GST-PAD4, initial screening: 0–250 µM inhibitor, 0.25 mM Dansyl-Gly-Arg; for Ki / IC50: GST-PAD4 preincubated 30 min with compound, 0.5 mM DTT, 10 mM CaCl2, 0.25 mM Dansyl-Gly-Arg, mean ± S.D., n = 3; for Ki: assuming competitive reversible mechanism; for IC50: linear regression
Protocol: 1 mU of GST-PAD4 was used in the experiments. To optimize the concentration of the reducing agent, experiments were done using different concentrations of DTT in the assay buffer ranging from 0 to 10 mM and the final concentration for the presented results was 0.5 mM DTT. Following pre-incubation of enzyme in the assay buffer, the reaction was initiated by the addition of 0.25 mM Dansyl-Gly-Arg. The reaction was stopped after 1h (as described above), the sample was separated by HPLC and the relative activity of PAD in each sample was determined by measuring the peak area of the citrullinated Dansyl-Gly-Arg.
The equilibrium inhibition constant (Ki) and IC50 were calculated from the fit of observed PAD activity against the respective compound concentration. Data was analyzed by the built-in Morrisson equation for tight-binding inhibition and represent the mean ± SD from at least three different determinations. IC50 values were determined by the linear regression to the initial fragment of the inhibition curve and are representative of inhibitor concentration required for the 50% reduction in the product release during the reaction.

HisTag-PPAD = biological target: T2, HisTag-PPAD (Porphyromonas gingivalis, UniProt Q9RQJ2); assay: HisTag-PPAD inhibition assay (Dansyl-Gly-Arg citrullination, HPLC); assay type: biochemical; conditions: 0–250 µM inhibitor, 0.25 mM Dansyl-Gly-Arg
T2 construct: made in house

human neutrophils [7] = assay: Histone H3 citrullination in neutrophils stimulated with calcium ionophore; assay type: cell-based; conditions: 50 µM, 4 μM calcium ionophore stimulation
Protocol: Neutrophils were isolated from human peripheral blood collected in acid citrate dextrose (ACD-A) by first spinning blood on Lymphoprep^TM (Axis Shield, Oslo, Norway), followed by dextran sedimentation using 3% dextran density gradient and hypotonic lysis of erythrocytes. Neutrophil purity was assessed to be >90% by flow cytometry. Cells were resuspended at 2 × 10^6 cells/mL in RPMI-1640 with HEPES (Thermo Fisher Scientific, Waltham, MA, USA) supplemented with 2 mM CaCl2 and pre-treated for 30 min with DMSO alone, 50 μM of compounds 1 to 6 or with either 50 or 200 μM of Cl-amidine. Cells were then stimulated with 4 μM calcium ionophore A23187 (Sigma-Aldrich, St. Louis, MO, USA) or left unstimulated as controls for 15 min at 37 °C, 5% CO2. Following stimulation, acid extraction of histones was performed according to Shechter et al.. […] The presence of citrullination in cellular histones was analyzed by Western blot.
The protein concentration in each sample was measured (A280nm) and normalized post-extraction. […] The signal was recorded with ChemiDoc image analyzer (Bio-Rad Laboratories, Hercules, CA, USA).

[8] = 50 µM compound, serum diluted 1:3, 1 mM Dansyl-Gly-Arg
[9] = PAD4-specific reversible inhibitors, read-out: IC50

T1 sequence (Q9UM07 whole entry): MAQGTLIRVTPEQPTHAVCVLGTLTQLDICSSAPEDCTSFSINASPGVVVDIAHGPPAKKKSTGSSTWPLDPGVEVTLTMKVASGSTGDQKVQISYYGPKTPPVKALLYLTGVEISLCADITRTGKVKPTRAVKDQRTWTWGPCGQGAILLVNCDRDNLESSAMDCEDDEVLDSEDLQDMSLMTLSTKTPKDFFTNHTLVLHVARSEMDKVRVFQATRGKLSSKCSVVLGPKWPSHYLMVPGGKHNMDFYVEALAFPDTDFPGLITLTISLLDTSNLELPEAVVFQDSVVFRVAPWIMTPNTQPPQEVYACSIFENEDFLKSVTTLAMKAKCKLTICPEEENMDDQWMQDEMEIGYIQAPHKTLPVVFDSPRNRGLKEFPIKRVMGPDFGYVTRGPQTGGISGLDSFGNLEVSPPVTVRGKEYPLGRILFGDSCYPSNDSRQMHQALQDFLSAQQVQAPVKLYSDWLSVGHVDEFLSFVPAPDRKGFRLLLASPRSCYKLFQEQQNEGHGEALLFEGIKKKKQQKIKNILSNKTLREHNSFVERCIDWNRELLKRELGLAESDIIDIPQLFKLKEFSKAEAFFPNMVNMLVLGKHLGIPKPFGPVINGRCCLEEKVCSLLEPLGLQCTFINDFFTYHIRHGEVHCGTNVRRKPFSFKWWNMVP
T2 sequence (Q9RQJ2 44-556): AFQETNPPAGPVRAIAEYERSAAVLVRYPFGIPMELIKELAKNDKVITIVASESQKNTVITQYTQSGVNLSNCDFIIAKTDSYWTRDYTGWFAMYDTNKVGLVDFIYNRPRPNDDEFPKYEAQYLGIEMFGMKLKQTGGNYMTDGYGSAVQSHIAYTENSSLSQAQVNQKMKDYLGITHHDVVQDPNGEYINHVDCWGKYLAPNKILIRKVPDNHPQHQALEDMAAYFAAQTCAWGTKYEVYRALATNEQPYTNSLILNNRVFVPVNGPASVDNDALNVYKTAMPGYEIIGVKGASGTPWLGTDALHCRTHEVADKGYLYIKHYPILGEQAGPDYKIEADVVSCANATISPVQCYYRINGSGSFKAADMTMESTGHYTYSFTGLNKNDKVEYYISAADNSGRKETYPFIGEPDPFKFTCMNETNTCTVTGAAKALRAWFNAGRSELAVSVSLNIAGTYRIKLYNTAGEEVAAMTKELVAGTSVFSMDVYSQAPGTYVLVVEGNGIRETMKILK

Inhibitory activity on GST-PAD4 in the presence of RA synovial fluid (GST-PAD4 [1]): ineffective
Inhibition of GST-PAD4-mediated citrullination of histone H3 (western blot) (GST-PAD4 [2]): not effective
Compound: N=C(CCl)NCCC[C@H](NC(=O)c1ccccc1)C(N)=O [Cl-amidine, N-α-Benzoyl-N5-(2-Chloro-1-Iminoethyl)-l-Ornithine Amide, reference compound]
Inhibitory potential on GST-PAD4 in the presence of serum (GST-PAD4 [1]): partially losing its inhibitory potential
Inhibition of DNA release (NETs) from PMA-stimulated neutrophils (human neutrophils [3]): inhibited this effect
NET formation visualized by DNA and histone H2A immunostaining (human neutrophils [4]): blocked the NET formation
Clinical signs and symptoms of colitis (colitis): reduce clinical signs and symptoms of colitis
Severity of murine collagen-induced arthritis [5]: decrease in the severity

Compound: Cc1ccc(/C=c2/sc3ncnn3c2=O)o1 [Compound 1]
Inhibition of GST-PAD4, initial screening (GST-PAD4 [6]): no inhibition
Inhibitory activity on GST-PAD4 in the presence of RA synovial fluid (GST-PAD4 [1]): did not show any detectable inhibitory activity
Inhibitory activity on GST-PAD4 in the presence of serum from RA patients (GST-PAD4 [1]; [8]): did not show any detectable inhibitory activity
Inhibitory activity on GST-PAD4 in the presence of serum from healthy donors (GST-PAD4 [1]; [8]): did not show any detectable inhibitory activity

Compound: Cc1ccc(/C=c2/sc3ncnn3c2=O)o1 [Compound 2]
Inhibition of GST-PAD4, initial screening (GST-PAD4 [6]): partially inhibited
Ki (GST-PAD4 [6]): 940 ± 310 nM
IC50 (GST-PAD4 [6]): 1400 ± 260 nM
Inhibition of HisTag-PPAD (HisTag-PPAD): no effect
Inhibitory potential on GST-PAD4 in the presence of serum (GST-PAD4 [1]): retained their inhibitory potential
Inhibition of histone H3 citrullination in neutrophils (western blot) (human neutrophils [7]): ineffective

Compound: FC(F)(F)c1cc(SCc2ccc(Cl)c(Cl)c2)nc2cc3c(cc12)OCO3 [Compound 4]
Inhibition of GST-PAD4, initial screening (GST-PAD4 [6]): partially inhibited
Ki (GST-PAD4 [6]): 1000 ± 160 nM
IC50 (GST-PAD4 [6]): 1880 ± 260 nM
Inhibition of HisTag-PPAD (HisTag-PPAD): no effect
Inhibitory potential on GST-PAD4 in the presence of serum (GST-PAD4 [1]): retained their inhibitory potential
Inhibitory activity on GST-PAD4 in the presence of serum from RA patients (GST-PAD4 [1]; [8]): did not diminish further
Inhibition of GST-PAD4-mediated citrullination of histone H3 (western blot) (GST-PAD4 [2]): significantly hampered
Inhibition of histone H3 citrullination in neutrophils (western blot) (human neutrophils [7]): visibly limited
Inhibition of DNA release (NETs) from PMA-stimulated neutrophils (human neutrophils [3]): limited ability to block DNA release
NET formation visualized by DNA and histone H2A immunostaining (human neutrophils [4]): blocked the NET formation

Compound: CCn1c(-c2nc3cc(C(=O)N4CCCC(N)C4)cc(OC)c3n2C)cc2cccnc21 (stereo not drawn) [GSK199]
IC50 (PAD4; [9]): 200 nM

Compound: CN(C)c1ccc(O)c2c1C[C@H]1C[C@H]3[C@H](N(C)C)C(O)=C(C(N)=O)C(=O)[C@@]3(O)C(O)=C1C2=O [minocycline]
IC50 (PAD4; reversible inhibitors): millimolar

Compound: [H]/N=C(/N)N[C@H]1[C@H](O)[C@@H](O)[C@H](O[C@@H]2O[C@@H](C)[C@](O)(C=O)[C@H]2O[C@@H]2O[C@@H](CO)[C@H](O)[C@@H](O)[C@@H]2NC)[C@@H](N/C(N)=N\[H])[C@@H]1O [streptomycin]
IC50 (PAD4; reversible inhibitors): millimolar

Compound: CC(=O)O[C@H]1C(=O)[C@@]2(C)[C@H]([C@H](OC(=O)c3ccccc3)[C@]3(O)C[C@H](OC(=O)[C@H](O)[C@@H](NC(=O)c4ccccc4)c4ccccc4)C(C)=C1C3(C)C)[C@]1(OC(C)=O)CO[C@@H]1C[C@@H]2O [taxol]
IC50 (PAD4; reversible inhibitors): millimolar
